# Assays:
# Type in all cases: in vivo
# [1] = tested on: soybean (Glycine max var. Winchester); test: Postemergence herbicidal activity, soybean; conditions: Glycine max, post-emergence, rate of application 0.3 Kg/Ha, rated after 12-17 days, read-out: Postemergence herbicidal activity (% control) SOY
# [2] = tested on: blackgrass (Aloepecurus myosuroides); test: Preemergence herbicidal activity, blackgrass; conditions: Alopecurus myosuroides, pre-emergence, Rate of Application 0.3 Kg/Ha, examined after 12-17 days, read-out: PREEMERGENCE HERBICIDAL ACTIVITY (% CONTROL) ALOMY
# [3] = tested on: common chickweed (Stellaria media); test: Preemergence herbicidal activity, chickweed; conditions: Stellaria media, pre-emergence, Rate of Application 0.3 Kg/Ha, examined after 12-17 days, read-out: PREEMERGENCE HERBICIDAL ACTIVITY (% CONTROL) STEME
# [4] = tested on: common chickweed (Stellaria media); test: Postemergence herbicidal activity, chickweed; conditions: Stellaria media, post-emergence, rate of application 0.3 Kg/Ha, rated after 12-17 days, read-out: Postemergence herbicidal activity (% control) STEME
# [5] = tested on: soybean (Glycine max var. Winchester); test: Preemergence herbicidal activity, soybean; conditions: Glycine max, pre-emergence, Rate of Application 0.3 Kg/Ha, examined after 12-17 days, read-out: PREEMERGENCE HERBICIDAL ACTIVITY (% CONTROL) SOY
# [6] = tested on: field corn (Zea mays var. Pioneer 3732); test: Preemergence herbicidal activity, corn; conditions: Zea mays, pre-emergence, Rate of Application 0.3 Kg/Ha, examined after 12-17 days, read-out: PREEMERGENCE HERBICIDAL ACTIVITY (% CONTROL) CRN
# [7] = tested on: common cocklebur (Xanthium strumarium L.); test: Preemergence herbicidal activity, cocklebur; conditions: Xanthium strumarium, pre-emergence, Rate of Application 0.3 Kg/Ha, examined after 12-17 days, read-out: PREEMERGENCE HERBICIDAL ACTIVITY (% CONTROL) XANPE
# [8] = tested on: velvetleaf (Abutilon theophrasti); test: Preemergence herbicidal activity, velvetleaf; conditions: Abutilon theophrasti, pre-emergence, Rate of Application 0.3 Kg/Ha, examined after 12-17 days, read-out: PREEMERGENCE HERBICIDAL ACTIVITY (% CONTROL) ABUTH
# [9] = tested on: morningglory (Ipomea lacunosa or Ipomea hederacea); test: Postemergence herbicidal activity, morningglory; conditions: Ipomoea, post-emergence, rate of application 0.3 Kg/Ha, rated after 12-17 days, read-out: Postemergence herbicidal activity (% control) IPOSS
# [10] = tested on: Johnsongrass (Sorghum halepense); test: Postemergence herbicidal activity, johnsongrass; conditions: Sorghum halepense, post-emergence, rate of application 0.3 Kg/Ha, rated after 12-17 days, read-out: Postemergence herbicidal activity (% control) SORHA
# [11] = tested on: green foxtail (Setaria viridis); test: Postemergence herbicidal activity, green foxtail; conditions: Setaria viridis, post-emergence, rate of application 0.3 Kg/Ha, rated after 12-17 days, read-out: Postemergence herbicidal activity (% control) SETVI
# [12] = tested on: wheat (Triticum aestivum var. Lew); test: Preemergence herbicidal activity, wheat; conditions: Triticum aestivum, pre-emergence, Rate of Application 0.3 Kg/Ha, examined after 12-17 days, read-out: PREEMERGENCE HERBICIDAL ACTIVITY (% CONTROL) WHT
# [13] = tested on: blackgrass (Aloepecurus myosuroides); test: Postemergence herbicidal activity, blackgrass; conditions: Alopecurus myosuroides, post-emergence, rate of application 0.3 Kg/Ha, rated after 12-17 days, read-out: Postemergence herbicidal activity (% control) ALOMY
# [14] = tested on: Johnsongrass (Sorghum halepense); test: Preemergence herbicidal activity, johnsongrass; conditions: Sorghum halepense, pre-emergence, Rate of Application 0.3 Kg/Ha, examined after 12-17 days, read-out: PREEMERGENCE HERBICIDAL ACTIVITY (% CONTROL) SORHA
Structure (SMILES),inhibition at 300 g/ha [1],inhibition at 300 g/ha [2],inhibition at 300 g/ha [3],inhibition at 300 g/ha [4],inhibition at 300 g/ha [5],inhibition at 300 g/ha [6],inhibition at 300 g/ha [7],inhibition at 300 g/ha [8],inhibition at 300 g/ha [9],inhibition at 300 g/ha [10],inhibition at 300 g/ha [11],inhibition at 300 g/ha [12],inhibition at 300 g/ha [13],inhibition at 300 g/ha [14]
"Cn1c(C(F)(F)F)cc(=O)n(-c2c(F)cc(Cl)c3[nH]c(C(F)(F)F)cc23)c1=O [Compound 500, 3-(7-CHLORO-5-FLUORO-2-TRIFLUOROMETHYLINDOL-4-YL)-1-METHYL-6-TRIFLUOROMETHYL-2,4(1H,3H)-PYRIMIDINEDIONE]",95%,75%,100%,90%,95%,90%,100%,100%,100%,100%,100%,75%,80%,100%
"CCc1nc2c(-n3c(=O)cc(C(F)(F)F)n(C)c3=O)c(F)cc(Cl)c2[nH]1 [Compound 367, 3-(4-CHLORO-2-ETHYL-6-FLUOROBENZIMIDAZOL-7-YL)-1-METHYL-6-TRIFLUOROMETHYL-2,4(1H,3H)-PYRIMIDINEDIONE]",100%,90%,100%,100%,100%,100%,100%,100%,100%,100%,100%,95%,100%,100%
"CC(C)c1nc2c(-n3c(=O)cc(C(F)(F)F)n(C)c3=O)c(F)cc(Cl)c2o1 [Compound 28, 1-METHYL-6-TRIFLUOROMETHYL-3-[7-CHLORO-5-FLUORO-2-(1-METHYLETHYL)BENZOXAZOL4-YL]-2,4(1H,3H)-PYRIMIDINEDIONE]",100%,100%,100%,100%,100%,95%,100%,100%,100%,95%,100%,100%,100%,100%
